Results from PubChem BioAssay (NCI).
“And” between values parts separate entries of the source, which are not always exact repeats. Identical values can stand only once.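 Method: 48-hour compound exposure of cells in 96-well plates, five concentrations, linear interpolation of endpoints. Here, GI50 denotes the concentration required for 50% inhibition of growth. Definition used: TGI = concentration required for complete inhibition of growth.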

Key:
Test in all cases: NCI anticancer screen, dose series, 48 h
MDA-MB-435 = tested on: MDA-MB-435
SNB-19 CNS = tested on: SNB-19 CNS
786-0 renal = tested on: 786-0 renal
RPMI-8226 leukemia = tested on: RPMI-8226 leukemia
MALME-3M melanoma = tested on: MALME-3M melanoma
NCI/ADR-RES ovarian = tested on: NCI/ADR-RES ovarian
CCRF-CEM leukemia = tested on: CCRF-CEM leukemia
NCI-H460 lung = tested on: NCI-H460 lung
SK-MEL-2 melanoma = tested on: SK-MEL-2 melanoma
SNB-75 CNS = tested on: SNB-75 CNS

Row | SMILES | GI50 (MDA-MB-435) [µM] | TGI (MDA-MB-435) [µM] | GI50 (SNB-19 CNS) [µM] | TGI (SNB-19 CNS) [µM] | GI50 (786-0 renal) [µM] | TGI (786-0 renal) [µM] | GI50 (RPMI-8226 leukemia) [µM] | TGI (RPMI-8226 leukemia) | GI50 (MALME-3M melanoma) [µM] | TGI (MALME-3M melanoma) [µM] | GI50 (NCI/ADR-RES ovarian) [µM] | TGI (NCI/ADR-RES ovarian) [µM] | GI50 (CCRF-CEM leukemia) [µM] | TGI (CCRF-CEM leukemia) [µM] | GI50 (NCI-H460 lung) [µM] | TGI (NCI-H460 lung) [µM] | GI50 (SK-MEL-2 melanoma) [µM] | TGI (SK-MEL-2 melanoma) [µM] | GI50 (SNB-75 CNS) [µM] | TGI (SNB-75 CNS)
1 | CCOC(=O)c1cn2ncnc(Oc3ccc(NC(=O)NCCN(CC)CC)c(Cl)c3)c2c1C | 1.87 | 3.51 | 10.5 | 28.1 | 1.89 | 3.75 | 1.73 | 3.92 µM | 1.7 | 3.3 | 4.26 | 64.5 | 2.33 | 6.73 | 9.1 | 24.4 | 2.36 | 5.38 | 3.14 | 31.5 µM
2 | COc1ccc(CC(C#N)c2cc(OC)c(OC)c(OC)c2)cc1 (stereo not drawn) |  | > 100 |  | > 100 |  | > 100 |  | 46.6 µM |  | > 100 |  | > 100 |  | > 100 |  | 21 |  | > 100 |  | > 100 µM
3 | O=C(O)CCc1nc(-c2ccccc2)c(-c2ccccc2)o1 |  | > 100 |  | > 100 |  | > 100 |  | > 100 µM |  | > 100 |  | > 100 |  | > 100 |  | > 100 |  | > 100 |  | > 100 µM
4 | O=C1/C(=C/c2ccc(C(F)(F)F)cc2)COc2ccc(O)cc21 | 2.41 | 6.54 | 1.91 | 3.98 | 1.91 | 4.17 | 0.29 | 0.885 µM | 2.05 | 5.1 | 2.15 | 6.42 | 0.228 | 1.42 | 3.24 | 10.4 | 9.43 | 21.9 | 13.9 | 27.8 µM
5 | C[C@@H]1CCC2[C@@H](C)[C@H](OC(=O)CCC(=O)NCCNC(=O)Cc3cc(=O)oc4cc(N(C)C)ccc34)O[C@@H]3O[C@]4(C)CC[C@@H]1C23OO4 (stereo partly drawn) | 0.472 | 16.8 | 10.7 | > 100 | 4.24 | 65.2 | 0.378 | 32.9 µM | 2.02 | > 100 | 1.19 | 22.9 | 1.57 | > 75.7 | 2.43 | 19.2 | 5.4 | > 43.7 | 8.22 | 29.2 µM
6 | c1cc(C2N3CCCN2CC3)ccn1 (stereo not drawn) |  | 89.2 |  | > 100 |  | > 100 |  | 71 µM |  | 80.1 |  | > 100 |  | > 100 |  | > 100 |  | > 100 |  | > 100 µM
7 | CO[C@H]1/C=C/C[C@H](C)[C@@H](C)S(=O)(=O)NC(=O)c2ccc3c(c2)N(C[C@@H]2CC[C@H]21)C[C@@]1(CCCc2cc(Cl)ccc21)CO3 | 1.48 | 3.14 | 3.45 | 14.1 | 2.9 | 8.27 | 0.132 | 0.534 µM | 1.97 | 4.14 | 2.23 | 6.6 | 1.3 | 5.03 | 1.99 | 4.17 | 0.321 | 1.43 | 1.34 | 3.03 µM
8 | CCN1CCN(c2nc(C)cc(N(CCCNc3ccnc4cc(Cl)ccc34)Cc3ccco3)n2)CC1 | 1.7 | 3.24 | 4.78 | 17.5 | 1.85 | 4.15 | 2.31 | 5.77 µM | 1.89 | 3.67 | 4.42 | 19.7 | 3.51 | 12.2 | 3.73 | 12.9 | 1.94 | 3.92 | 1.7 | 7.55 µM
9 | c1ccc([P+](CCC[P+](c2ccccc2)(c2ccccc2)c2ccccc2)(c2ccccc2)c2ccccc2)cc1 | 4.84 | > 100 | 8.95 | > 100 |  | > 100 | 1.27 | > 100 µM and 10.1 µM |  | > 100 | > 100 | > 100 | 7.26 | > 100 | 9.03 | > 100 | 8.44 | 40 | 4.56 | 86 µM and 67.6 µM
